Key:
[1] = system: Hepatitis B virus; assay: Antiviral activity against HBV infected in human HepG2.2.15 cells assessed as inhibition of hepatitis B e antigen secretion by ELISA; assay type: functional, organism-based; conditions: HepG2 2.2.15
[2] = Selectivity index, ratio of CC50 for human HepG2.2.15 cells to IC50 for HBV infected in human HepG2.2.15 cells assessed as inhibition of DNA replication; assay type: functional
[3] = Selectivity index, ratio of CC50 for human HepG2.2.15 cells to IC50 for HBV infected in human HepG2.2.15 cells assessed as inhibition of hepatitis B e antigen secretion; assay type: functional
[4] = system: Hepatitis B virus; assay: Antiviral activity against HBV infected in human HepG2.2.15 cells assessed as inhibition of DNA replication; assay type: functional, organism-based; conditions: HepG2 2.2.15
[5] = Cytotoxicity against human HepG2.2.15 cells by MTT assay; assay type: cell-based, HepG2 2.2.15
[6] = system: Hepatitis B virus; assay: Antiviral activity against HBV infected in human HepG2.2.15 cells assessed as inhibition of hepatitis B surface antigen secretion by ELISA; assay type: functional, organism-based; conditions: HepG2 2.2.15

| Compound | IC50 [1] | Ratio CC50/IC50 [2] | Ratio CC50/IC50 [3] | IC50 [4] | CC50 [5] | IC50 [6] |
| --- | --- | --- | --- | --- | --- | --- |
| C=C1CC[C@@H]2[C@](C)(COC(=O)c3cc(=O)c4ccccc4o3)[C@H](O)CC[C@@]2(C)[C@@H]1/C=C/C1=CCOC1=O | 177 µM | 4.7 | 1 | 36.6 µM | 171 µM | – |
| C=C1CC[C@@H]2[C@](C)(COC(=O)c3ccccc3C(=O)O)[C@H](OC(=O)c3ccccc3C(=O)O)CC[C@@]2(C)[C@@H]1C/C=C1\C=COC1=O | 218 µM | >92.8 | >9.4 | 22 µM | > 2040 µM | – |
| C=C1CC[C@@H]2[C@](C)(COC(=O)/C=C/c3ccccc3)[C@H](O)CC[C@@]2(C)[C@@H]1C/C=C1\C=COC1=O | 516 µM | 5.8 | – | 46.6 µM | 271 µM | 210 µM |
| C=C1CC[C@@H]2[C@](C)(COC(=O)/C=C/c3cc(OC)c(OC)c(OC)c3)[C@H](O)CC[C@@]2(C)[C@@H]1C/C=C1\C=COC1=O | – | 14.6 | – | 22.3 µM | 325 µM | – |
| C=C1CC[C@@H]2[C@](C)(COC(=O)CCCC)[C@H](OC(=O)CCCC)CC[C@@]2(C)[C@@H]1C/C=C1\C=COC1=O | 1390 µM | – | – | 455 µM | 757 µM | 1010 µM |
| C=C1CC[C@@H]2[C@](C)(COC(=O)c3cccnc3)[C@H](O)CC[C@@]2(C)[C@@H]1C/C=C1\C=COC1=O | > 974 µM | 126 | – | 16.3 µM | 2050 µM | > 1140 µM |
| C=C1CC[C@@H]2[C@](C)(C=O)[C@H](O)CC[C@@]2(C)[C@@H]1/C=C/C1=CCOC1=O | 1950 µM | 9.1 | – | 13.4 µM | 122 µM | 1840 µM |
| C=C1CC[C@@H]2[C@](C)(COC(=O)c3ccccc3C(=O)O)[C@H](OC(=O)c3ccccc3C(=O)O)CC[C@@]2(C)[C@@H]1/C=C/C1=CCOC1=O | – | >15.6 | – | 104 µM | > 1620 µM | – |
| C=C1CC[C@H]2[C@@](C)(CCC(=O)[C@@]2(C)C=O)[C@@H]1C/C=C1/C(=O)OC[C@H]1O | 815 µM | 3 | – | 51.3 µM | 155 µM | 951 µM |
| C=C1CC[C@@H]2[C@](C)(CO)[C@H](OC(=O)/C=C/c3cc(OC)c(OC)c(OC)c3)CC[C@@]2(C)[C@@H]1C/C=C1\C=COC1=O | 518 µM | 3 | – | 53.1 µM | 211 µM | 753 µM |
| C=C1CC[C@@H]2[C@](C)(COC(=O)c3cccnc3)[C@H](OC(=O)c3cccnc3)CC[C@@]2(C)[C@@H]1/C=C/C1=CCOC1=O | > 1920 µM | – | – | > 664 µM | > 1920 µM | > 1920 µM |
| C=C1CC[C@@H]2[C@](C)(CO)[C@H](OC(=O)/C=C/c3ccccc3)CC[C@@]2(C)[C@@H]1C/C=C1\C=COC1=O | 1170 µM | 5.8 | – | 30.7 µM | 179 µM | 466 µM |
| C=C1CC[C@@H]2[C@](C)(COC(=O)c3cccnc3OC)[C@H](O)CC[C@@]2(C)[C@@H]1/C=C/C1=CCOC1=O | 217 µM | – | 6.2 | > 584 µM | 1340 µM | > 2310 µM |
| C=C1CC[C@@H]2[C@](C)(CO)[C@H](O)CC[C@@]2(C)[C@@H]1C/C=C(/C(=O)O)[C@H](O)CO | – | 7.8 | – | 23.2 µM | 182 µM | – |
| C=C1CC[C@@H]2[C@](C)(COC(C)=O)[C@H](O)CC[C@@]2(C)[C@@H]1/C=C/C1=CCOC1=O | 2230 µM | 3.2 | – | 69.5 µM | 225 µM | 565 µM |
| C=C1CC[C@@H]2[C@](C)(COC(=O)/C=C/c3cc(OC)c(OC)c(OC)c3)[C@H](OC(=O)/C=C/c3cc(OC)c(OC)c(OC)c3)CC[C@@]2(C)[C@@H]1C/C=C1\C=COC1=O | > 253 µM | – | – | > 458 µM | > 1830 µM | > 1830 µM |

| Compound | IC50 [1] | Ratio CC50/IC50 [2] | Ratio CC50/IC50 [3] | IC50 [4] | CC50 [5] | IC50 [6] |
| --- | --- | --- | --- | --- | --- | --- |
| C=C1CC[C@@H]2[C@](C)(COC(=O)/C=C/c3cccc(OC)c3)[C@H](O)CC[C@@]2(C)[C@@H]1/C=C/C1=CCOC1=O | 1480 µM | – | – | > 513 µM | > 1970 µM | > 1970 µM |
| C=C1CC[C@H]2[C@@](C)(CCC(=O)[C@@]2(C)C=O)[C@@H]1/C=C/C1=CCOC1=O | – | 1.1 | – | 263 µM | 275 µM | 394 µM |
| C=C1CC[C@@H]2[C@](C)(CO)[C@H](OC(=O)c3ccccc3)CC[C@@]2(C)[C@@H]1C/C=C1\C=COC1=O | 118 µM | 4.8 | – | 21.6 µM | 103 µM | 877 µM |
| C=C1CC[C@@H]2[C@](C)(COC(=O)/C=C/c3cccc(Cl)c3)[C@H](O)CC[C@@]2(C)[C@@H]1/C=C/C1=CCOC1=O | 59.8 µM | – | 2.5 | 136 µM | 147 µM | 207 µM |
| C=C1CC[C@@H]2[C@](C)(COC(=O)CCC(=O)O)[C@H](OC(=O)CCC(=O)O)CC[C@@]2(C)[C@@H]1C/C=C1\C=COC1=O | 243 µM | – | – | 47.6 µM | 32 µM | 1160 µM |
| C=C1CC[C@@H]2[C@](C)(CO)[C@H](OC(=O)CCCC)CC[C@@]2(C)[C@@H]1C/C=C1\C=COC1=O | 208 µM | 1.82 | – | 69.8 µM | 126 µM | 625 µM |
| C=C1CC[C@@H]2[C@](C)(COC(=O)c3ccccc3)[C@H](O)CC[C@@]2(C)[C@@H]1C/C=C1\C=COC1=O | 123 µM | 4 | – | 20.6 µM | 82 µM | 880 µM |
| C=C1CC[C@@H]2[C@](C)(COC(=O)c3ccco3)[C@H](O)CC[C@@]2(C)[C@@H]1C/C=C1\C=COC1=O | > 949 µM | >100.5 | – | 21.4 µM | > 2150 µM | – |
| C=C1CC[C@@H]2[C@](C)(CO)[C@H](OC(=O)c3ccco3)CC[C@@]2(C)[C@@H]1C/C=C1\C=COC1=O | 586 µM | 1.7 | – | 25.2 µM | 42 µM | 777 µM |
| C=C1CC[C@@H]2[C@](C)(COC(C)=O)[C@H](OC(C)=O)CC[C@@]2(C)[C@@H]1/C=C/C1=CCOC1=O | 1390 µM | – | – | 455 µM | 757 µM | 1010 µM |
| C=C1CC[C@@H]2[C@](C)(COC(=O)c3ccco3)[C@H](OC(=O)c3ccco3)CC[C@@]2(C)[C@@H]1/C=C/C1=CCOC1=O | 1860 µM | 4.6 | – | 242 µM | 1110 µM | 1410 µM |
| C=C1CC[C@@H]2[C@](C)(COC(=O)CCCC)[C@H](O)CC[C@@]2(C)[C@@H]1C/C=C1\C=COC1=O | 2230 µM | 3.2 | – | 69.5 µM | 225 µM | 565 µM |
| C=C1CC[C@@H]2[C@](C)(COC(=O)CCCC(=O)O)[C@H](OC(=O)CCCC(=O)O)CC[C@@]2(C)[C@@H]1/C=C/C1=CCOC1=O | > 1710 µM | – | – | > 429 µM | > 1710 µM | > 1710 µM |
| C=C1CC[C@@H]2[C@](C)(COC(=O)COCC(=O)O)[C@H](OC(=O)COCC(=O)O)CC[C@@]2(C)[C@@H]1/C=C/C1=CCOC1=O | > 1930 µM | – | – | > 483 µM | > 1930 µM | > 1930 µM |
| C=C1CC[C@@H]2[C@](C)(COC(=O)c3cccs3)[C@H](OC(=O)c3cccs3)CC[C@@]2(C)[C@@H]1C/C=C1\C=COC1=O | 1220 µM | – | 1.1 | – | 1370 µM | 1640 µM |
| C=C1CC[C@@H]2[C@](C)(CO)[C@H](O)CC[C@@]2(C)[C@@H]1/C=C/C1=CC(C(C)(C)O)OC1=O (stereo partly specified) | 562 µM | – | – | 394 µM | 122 µM | – |

Reference: ChEMBL document CHEMBL3259753, “Synthesis, structure-activity relationships and biological evaluation of dehydroandrographolide and andrographolide derivatives as novel anti-hepatitis B virus agents” (Bioorg Med Chem Lett, 2014)
